Results taken from US20160303184A1, “VANCOMYCIN-SUGAR CONJUGATES AND USES THEREOF” (JAWAHARLAL NEHRU CENTRE FOR ADVANCED SCIENTIFIC RESEARCH …, priority 2013, published 2016).
Converted amounts (≈) assume the structure as drawn. Where two headings read alike, the source gives them in different places.

Columns and labels:
Type in all cases: cell-based
[1] = tested on: Methicillin-sensitive S. aureus (MTCC 737); assay: MIC, micro-dilution broth, MSSA; settings: MTCC 737, read-out: MIC MSSA
Description: (§1) All test compounds were assayed in a micro-dilution broth format. Stock solutions were made by serially diluting the compounds using autoclaved millipore water or broth media. The antibacterial activity of the compounds was determined against methicillin-sensitive S. aureus (MSSA), methicillin-resistant S. aureus (MRSA), vancomycin-intermediate-resistant S. aureus (VISA), vancomycin-sensitive E. faecium (VSE) and vancomycin-resistant E. faecium (VRE). Bacteria, to be tested, were grown for about 10 h in the suitable media, MSSA, MRSA and VISA were grown in yeast-dextrose broth (about 1 g of beef extract, about 2 g of yeast extract, about 5 g of peptone and about 5 g of NaCl in about 1000 mL of sterile distilled water (pH-7)). For solid media, about 5% agar was used along with above mentioned composition. VSE and VRE were cultured in brain heart infusion broth (Himedia). The bacterial samples were freeze dried and stored at −80° C. About 5 μL of these stocks were added to about 3 mL of the nutrient broth and the culture was grown for about 6 h at about 37° C. prior to the experiments. This 6 h grown culture gives about 10^9 cfu/mL and this was determined by spread plating method. The 6 h grown culture was diluted to give effective cell concentration of about 10^5 cfu/mL which was then used for determining MIC. Compounds were serially diluted, in sterile water (2 fold dilution is employed) in a way that the working concentration was about 10 μM for MSSA, MRSA, and VSE while for VRE and VISA it was about 100 μM. About 50 μL of these serial dilutions were added to the wells of 96 well plate followed by the addition of about 150 μL of bacterial solution. The plates were then incubated at about 37° C., 150 rpm in the incubator and O.D at 600 nm was recorded at an interval of about 10 h and 24 h using TECAN (Infinite series, M200 pro) Plate Reader. Each concentration had triplicate values and the whole experiment was done at least twice and the MIC value was determined by taking the average of triplicate. O. D. values for each concentration and plotting it against concentration. The data was then subjected to sigmoidal fitting. From the curve the MIC value was determined, as the point in the curve where the O. D. was similar to that of control having no bacteria.

[2] = tested on: Methicillin-resistant S. aureus (ATCC 33591); assay: MIC, micro-dilution broth, MRSA; settings: ATCC 33591, read-out: MIC MRSA
Description: as §1

[3] = tested on: Vancomycin intermediate resistant S. aureus; assay: MIC, micro-dilution broth, VISA; settings: read-out: MIC VISA
Description: as §1

[4] = tested on: Vancomycin-sensitive E. faecium (ATCC 19634); assay: MIC, micro-dilution broth, VSE; settings: read-out: MIC VSE
Description: as §1

[5] = tested on: Vancomycin-resistant E. faecium (VanA, ATCC 51559); assay: MIC, micro-dilution broth, VRE (VanA); settings: E. faecium ATCC 51559, read-out: MIC VRE (VanA)
Description: as §1

[6] = tested on: Vancomycin-resistant E. faecalis (VanA, ATCC 51575); assay: MIC, micro-dilution broth, VRE (VanB); settings: Enterococcus faecalis; E. faecalis ATCC 51575; read-out: MIC VRE (VanB)
[7] = tested on: methicillin-resistant S. epidermidis clinical isolate; assay: MIC, clinical isolate of methicillin-resistant S. epidermidis; settings: Staphylococcus epidermidis, read-out: MIC S. epidermidis
[8] = tested on: methicillin-resistant S. haemolyticus clinical isolate; assay: MIC, clinical isolate of methicillin-resistant S. haemolyticus; settings: Staphylococcus haemolyticus; clinical isolate, methicillin-resistant; read-out: MIC S. haemolyticus
[9] = tested on: methicillin-resistant S. aureus clinical isolate; assay: MIC, clinical isolate of methicillin-resistant S. aureus; settings: Staphylococcus aureus, read-out: MIC S. aureus
Description: as §1

[10] = Enterococcus faecium, ATCC19634, ATCC 19634

Structure (SMILES) | MIC [1] [µM] | MIC [2] [µM] | MIC [3] [µM] | MIC ([4]; ATCC 19634) [µM] | MIC [5] [µM] | MIC ([1]; Staphylococcus aureus) [µM] | MIC ([2]; Staphylococcus aureus) [µM] | MIC ([3]; Staphylococcus aureus, VISA) [µM] | MIC [4, 10] [µM] | MIC ([5]; Enterococcus faecium) [µM] | MIC [6] [µM] | MIC [7] [µM] | MIC [8] [µM] | MIC [9] [µM]
CN[C@H](CC(C)C)C(=O)N[C@H]1C(=O)N[C@@H](CC(N)=O)C(=O)N[C@H]2C(=O)N[C@H]3C(=O)N[C@H](C(=O)N[C@H](C(=O)NCCOC4OC(CO)C(O)C(O)C4O)c4cc(O)cc(O)c4-c4cc3ccc4O)[C@H](O)c3ccc(c(Cl)c3)Oc3cc2cc(c3O[C@H]2OC(CO)[C@H](O)C(O)C2O[C@H]2C[C@@](C)(N)[C@H](O)C(C)O2)Oc2ccc(cc2Cl)[C@H]1O (stereo partly shown) [Compound 1] |  |  |  |  |  | 1.4 (≈ 2.32 µg/mL) | 1.2 (≈ 1.99 µg/mL) | 2.4 (≈ 3.97 µg/mL) | 0.6 (≈ 0.993 µg/mL) | > 100 |  |  |  | 
CN[C@H](CC(C)C)C(=O)N[C@H]1C(=O)N[C@@H](CC(N)=O)C(=O)N[C@H]2C(=O)N[C@H]3C(=O)N[C@H](C(=O)N[C@H](C(=O)NCCCNCC(O)C(O)C(OC4OC(CO)C(O)C(O)C4O)C(O)CO)c4cc(O)cc(O)c4-c4cc3ccc4O)[C@H](O)c3ccc(c(Cl)c3)Oc3cc2cc(c3O[C@H]2OC(CO)[C@H](O)C(O)C2O[C@H]2C[C@@](C)(N)[C@H](O)C(C)O2)Oc2ccc(cc2Cl)[C@H]1O (stereo partly shown) [Compound 6] | 1.0 (≈ 1.83 µg/mL) | 1.0 (≈ 1.83 µg/mL) | 0.99 (≈ 1.81 µg/mL) | 0.5 (≈ 0.916 µg/mL) | >100 |  |  |  |  |  |  |  |  | 
CCCCCCCCN[C@]1(C)C[C@H](OC2C(O)[C@@H](O)C(CO)O[C@@H]2Oc2c3cc4cc2Oc2ccc(cc2Cl)[C@@H](O)[C@@H](NC(=O)[C@@H](CC(C)C)NC)C(=O)N[C@@H](CC(N)=O)C(=O)N[C@H]4C(=O)N[C@H]2C(=O)N[C@H](C(=O)N[C@H](C(=O)NCCCNC(=O)[C@H](O)[C@@H](O)[C@H](OC4OC(CO)C(O)C(O)C4O)[C@H](O)CO)c4cc(O)cc(O)c4-c4cc2ccc4O)[C@H](O)c2ccc(c(Cl)c2)O3)OC(C)[C@@H]1O (stereo partly shown) [Compound 17] |  |  |  |  |  | 0.2 (≈ 0.392 µg/mL) | 0.3 (≈ 0.587 µg/mL) | 0.31 (≈ 0.607 µg/mL) | 0.2 (≈ 0.392 µg/mL) | 2 (≈ 3.92 µg/mL) | 6.2 (≈ 12.1 µg/mL) | 0.3 (≈ 0.587 µg/mL) | 0.4 (≈ 0.783 µg/mL) | 0.2 (≈ 0.392 µg/mL)
CCCCCCCCCCCCN[C@]1(C)C[C@H](OC2C(O)[C@@H](O)C(CO)O[C@@H]2Oc2c3cc4cc2Oc2ccc(cc2Cl)[C@@H](O)[C@@H](NC(=O)[C@@H](CC(C)C)NC)C(=O)N[C@@H](CC(N)=O)C(=O)N[C@H]4C(=O)N[C@H]2C(=O)N[C@H](C(=O)N[C@H](C(=O)NCCCNC(=O)[C@H](O)[C@@H](O)[C@H](OC4OC(CO)C(O)C(O)C4O)[C@H](O)CO)c4cc(O)cc(O)c4-c4cc2ccc4O)[C@H](O)c2ccc(c(Cl)c2)O3)OC(C)[C@@H]1O (stereo partly shown) [Compound 18] |  |  |  |  |  | 0.2 (≈ 0.403 µg/mL) | 0.3 (≈ 0.604 µg/mL) | 0.22 (≈ 0.443 µg/mL) | 0.2 (≈ 0.403 µg/mL) | 0.8 (≈ 1.61 µg/mL) | 1 (≈ 2.01 µg/mL) | 0.35 (≈ 0.705 µg/mL) | 0.5 (≈ 1.01 µg/mL) | 0.3 (≈ 0.604 µg/mL)
CCCCCCCCCCN[C@]1(C)C[C@H](OC2C(O)[C@@H](O)C(CO)O[C@@H]2Oc2c3cc4cc2Oc2ccc(cc2Cl)[C@@H](O)[C@@H](NC(=O)[C@@H](CC(C)C)NC)C(=O)N[C@@H](CC(N)=O)C(=O)N[C@H]4C(=O)N[C@H]2C(=O)N[C@H](C(=O)N[C@H](C(=O)O)c4cc(O)cc(O)c4-c4cc2ccc4O)[C@H](O)c2ccc(c(Cl)c2)O3)OC(C)[C@@H]1O (stereo partly shown) [Compound 8] |  |  |  |  |  | 0.3 (≈ 0.477 µg/mL) | 0.3 (≈ 0.477 µg/mL) | 0.32 (≈ 0.509 µg/mL) | 0.2 (≈ 0.318 µg/mL) | 14 (≈ 22.3 µg/mL) | 6.2 (≈ 9.86 µg/mL) |  |  | 
